This note sets out measurements from patent publication US20220323406A1, “METHODS AND COMPOSITIONS FOR DIFFERENTIATING STEM CELLS” (Massachusetts Institute of Technology, priority 2019, published 2022).

The subject of test [1] is ENR+CD organoids (ISC to Paneth cell differentiation). The test can be described thus: Primary screen: basal (non-stimulated) lysozyme secretion LYZ.NS, 2.5-D 384-well ENR+CD organoid differentiation. It counts as cell-based, mouse. An excerpt: (§1) High-throughput screening.
For test [2] the test system is unchanged. The test can be described thus: Primary screen: CCh-stimulated lysozyme secretion LYZ.S, 2.5-D 384-well ENR+CD organoid differentiation. The test is classed as cell-based, mouse. The following applies: primary screen.
Description: as §1

The test system of a further test is ENR+CD organoids. The test can be described thus: Primary screen: ATP (CellTiter-Glo 3D, CTG) cell number/viability, 2.5-D 384-well ENR+CD organoids. (ATP-based viability assays read luminescence as a measure of living cells.)
Where [3] appears, read: primary screen, standard z score, dose 0.08 uM.
[4] abbreviates: primary screen, standard z score, dose 0.40 uM.
The mark [5] stands for this setting: primary screen, standard z score, dose 2.00 uM.
[6] abbreviates: primary screen, standard z score, dose 10.00 uM.
Where [7] appears, read: primary screen, dose 0.08 uM, FC relative to plate median.
Where [8] appears, read: primary screen, dose 0.08 uM, standard z score.
[9] abbreviates: primary screen, dose 0.40 uM, FC relative to plate median.
Where [10] appears, read: primary screen, dose 0.40 uM, standard z score.
The mark [11] stands for this setting: primary screen, dose 2.00 uM, FC relative to plate median.
Where [12] appears, read: primary screen, dose 2.00 uM, standard z score.
Where [13] appears, read: primary screen, dose 10.00 uM, FC relative to plate median.
Setting [14] is: primary screen, dose 10.00 uM, standard z score.
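For Dose.FC.CTG in this document: compounds given at plating and again on day 3 over a 6-day differentiation from ENR+CV stem-cell-enriched precursors, ATP measured on day 6, plate median as control.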
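For Z.CTG (standard z score) in this document: compounds given at plating and again on day 3 over a 6-day differentiation from ENR+CV stem-cell-enriched precursors, ATP measured on day 6, plate median as control.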
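For Z.CTG in this document: compounds given at plating and again on day 3 over a 6-day differentiation from ENR+CV stem-cell-enriched precursors, ATP measured on day 6, plate median as control.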

In the case of `O=C(Nc1cccc(Nc2ncc(Br)c(NCCc3cnc[nH]3)n2)c1)N1CCCC1` [BX-912], the Dose.FC.LYZ.NS is 0.010 log2 fold change in test [1] (primary screen, dose 0.08 uM); 0.017 log2 fold change in test [1] (primary screen, dose 0.40 uM); −0.089 log2 fold change in test [1] (primary screen, dose 2.00 uM); −0.196 log2 fold change in test [1] (primary screen, dose 10.00 uM). Besides, the Z.LYZ.NS in test [1] (setting [3]) is given as 0.090; in test [1] (setting [4]), 0.151; in test [1] (setting [5]), −0.771; in test [1] (setting [6]), −1.704. In addition, the Dose.FC.LYZ.S in test [2] (dose 0.08 uM) is 0.038 log2 fold change; in test [2] (dose 0.40 uM), 0.042 log2 fold change; in test [2] (dose 2.00 uM) it was −0.161 log2 fold change; in test [2] (dose 10.00 uM), −0.272 log2 fold change. In addition, the Dose.FC.CTG was 0.043 log2 fold change with ENR+CD organoids (primary screen, dose 0.08 uM); 0.054 log2 fold change with ENR+CD organoids (primary screen, dose 0.40 uM); −0.246 log2 fold change with ENR+CD organoids (primary screen, dose 2.00 uM); −0.397 log2 fold change in the test with ENR+CD organoids (primary screen, dose 10.00 uM). Further, the Z.CTG is 0.103 in the test on ENR+CD organoids (setting [3]), 0.129 in the test on ENR+CD organoids (setting [4]), −0.587 with ENR+CD organoids (setting [5]) and −0.949 in the test with ENR+CD organoids (setting [6]).

Take `Cc1cc(C)nc(NS(=O)(=O)c2ccc(NC(=S)NC(=O)COc3ccc(Br)cc3Cl)cc2)n1` [ZCL278]: the Dose.FC.LYZ.NS in test [1] (primary screen, dose 0.08 uM) was −0.084 log2 fold change; in test [1] (primary screen, dose 0.40 uM), −0.037 log2 fold change; in test [1] (primary screen, dose 2.00 uM) it was 0.025 log2 fold change; in test [1] (primary screen, dose 10.00 uM), 0.015 log2 fold change. Besides, the “Z.LYZ.NS (standard z score)” value is given as −0.729 in test [1] (primary screen, dose 0.08 uM); −0.325 in test [1] (primary screen, dose 0.40 uM); 0.218 in test [1] (primary screen, dose 2.00 uM); 0.130 in test [1] (primary screen, dose 10.00 uM). Also, the Dose.FC.LYZ.S in test [2] (dose 0.08 uM) is on record as −0.107 log2 fold change; in test [2] (dose 0.40 uM) it was 0.077 log2 fold change; in test [2] (dose 2.00 uM), −0.079 log2 fold change; in test [2] (dose 10.00 uM) it was −0.080 log2 fold change. In addition, the Dose.FC.CTG in the test with ENR+CD organoids (primary screen, dose 0.08 uM) was −0.964 log2 fold change; in the test with ENR+CD organoids (primary screen, dose 0.40 uM) it was 0.018 log2 fold change; in the test with ENR+CD organoids (primary screen, dose 2.00 uM), −0.228 log2 fold change; in the test on ENR+CD organoids (primary screen, dose 10.00 uM), −0.104 log2 fold change. The “Z.CTG (standard z score)” value in the test on ENR+CD organoids (primary screen, dose 0.08 uM) is −2.303; in the test on ENR+CD organoids (primary screen, dose 0.40 uM), 0.044; with ENR+CD organoids (primary screen, dose 2.00 uM) it was −0.545; in the test on ENR+CD organoids (primary screen, dose 10.00 uM), −0.247.

Turning to `O=[N+]([O-])c1ccc2c(c1)S(=O)(=O)C=C2` [Stattic], the Dose.FC.LYZ.NS in test [1] (setting [7]) was 0.130 log2 fold change; in test [1] (setting [9]), 0.022 log2 fold change; in test [1] (setting [11]) it was 0.147 log2 fold change; in test [1] (setting [13]), −0.021 log2 fold change. The Z.LYZ.NS is given as 1.131 in test [1] (setting [8]), 0.189 in test [1] (setting [10]), 1.276 in test [1] (setting [12]) and −0.186 in test [1] (setting [14]). For the same compound, the Dose.FC.LYZ.S is recorded as 0.150 log2 fold change in test [2] (dose 0.08 uM, FC relative to plate median); 0.033 log2 fold change in test [2] (dose 0.40 uM, FC relative to plate median); 0.082 log2 fold change in test [2] (dose 2.00 uM, FC relative to plate median); −0.019 log2 fold change in test [2] (dose 10.00 uM, FC relative to plate median). Moreover, the Dose.FC.CTG is −0.080 log2 fold change in the test on ENR+CD organoids (setting [7]), −0.005 log2 fold change with ENR+CD organoids (setting [9]), 0.033 log2 fold change in the test on ENR+CD organoids (setting [11]) and −0.025 log2 fold change in the test on ENR+CD organoids (setting [13]). In addition, the Z.CTG with ENR+CD organoids (setting [8]) is −0.191; with ENR+CD organoids (setting [10]) it was −0.011; with ENR+CD organoids (setting [12]), 0.078; in the test on ENR+CD organoids (setting [14]) it was −0.060.
